Test results reported in ChEMBL document CHEMBL1201862, “PubChem BioAssay data set” (2004).
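Each compound was tested at five concentrations against cells in 96-well plates for 48 hours. The concentration for 50% growth inhibition is given as GI50.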 The source made the active and inactive calls. No stated cut-off is given here; in the data, active = GI50 up to about 1.1 µM and inactive = higher.

Columns and labels:
Test in all cases: growth of human tumour cells (NCI), 48 h
[1] = system: SK-MEL-5
[2] = system: Malme-3M
[3] = system: SW-620
[4] = system: U-251
[5] = system: A498
[6] = system: OVCAR-5
[7] = system: OVCAR-8
[8] = system: HCT-116
[9] = system: SF-539
[10] = system: LXFL 529
[11] = system: KM12
[12] = system: NCI-H23
[13] = system: SNB-78
[14] = system: OVCAR-3
[15] = system: CCRF-CEM
[16] = system: ACHN
[17] = system: TK-10
[18] = system: MOLT-4
[19] = system: M19-MEL
[20] = system: DMS-114
[21] = system: SK-MEL-28
[22] = system: A549
[23] = system: SN12C
[24] = system: HCT-15
[25] = system: COLO 205
[26] = system: SR
[27] = system: SF-295
[28] = system: KM-20L2
[29] = system: HOP-18
[30] = system: IGROV-1
[31] = system: UACC-257
[32] = system: NCI-H460
[33] = system: UO-31
[34] = system: LOX IMVI
[35] = system: CAKI-1
[36] = system: SK-OV-3
[37] = system: DLD-1
[38] = system: M14
[39] = system: SNB-19
[40] = system: HOP-62
[41] = system: SF-268
[42] = system: 786-0
[43] = system: OVCAR-4
[44] = system: RPMI-8226
[45] = system: SK-MEL-2
[46] = system: SNB-75
[47] = system: RXF 631
[48] = system: HT-29
[49] = system: UACC-62
[50] = system: NCI-H226
[51] = system: NCI-H522
[52] = system: HOP-92
[53] = system: HL-60
[54] = system: DMS-273
[55] = system: EKVX
[56] = system: K562
[57] = system: HCC 2998

## O=C(NC1CCCCC1)c1c(O)[nH]c(=S)[nH]c1=O
[1]
  GI50: > 100 µM (inactive)
[2]
  GI50: > 100 µM (inactive)
[3]
  GI50: > 100 µM (inactive)
[4]
  GI50: 88.5 µM (inactive)
[5]
  GI50: > 100 µM (inactive)
[6]
  GI50: > 100 µM (inactive)
[7]
  GI50: 89.7 µM (inactive)
[8]
  GI50: > 100 µM (inactive)
[9]
  GI50: > 100 µM (inactive)
[10]
  GI50: > 100 µM (inactive)
[11]
  GI50: > 100 µM (inactive)
[12]
  GI50: > 100 µM (inactive)
[13]
  GI50: 99.1 µM (inactive)
[14]
  GI50: > 100 µM (inactive)
[15]
  GI50: > 100 µM (inactive)
[16]
  GI50: 83 µM (inactive)
[17]
  GI50: > 100 µM (inactive)
[18]
  GI50: > 100 µM (inactive)
[19]
  GI50: > 100 µM (inactive)
[20]
  GI50: 88.5 µM (inactive)
[21]
  GI50: > 100 µM (inactive)
[22]
  GI50: 52.4 µM (inactive)
[23]
  GI50: > 100 µM (inactive)
[24]
  GI50: > 100 µM
[25]
  GI50: > 100 µM (inactive)
[26]
  GI50: > 100 µM (inactive)
[27]
  GI50: 99.3 µM (inactive)
[28]
  GI50: > 100 µM (inactive)
[29]
  GI50: > 100 µM (inactive)
[30]
  GI50: > 100 µM (inactive)
[31]
  GI50: > 100 µM (inactive)
[32]
  GI50: 57 µM (inactive)
[33]
  GI50: 79.3 µM (inactive)
[34]
  GI50: > 100 µM (inactive)
[35]
  GI50: > 100 µM (inactive)
[36]
  GI50: > 100 µM (inactive)
[37]
  GI50: > 100 µM (inactive)
[38]
  GI50: > 100 µM (inactive)
[39]
  GI50: > 100 µM (inactive)
[40]
  GI50: > 100 µM (inactive)
[41]
  GI50: > 100 µM (inactive)
[42]
  GI50: > 100 µM (inactive)
[43]
  GI50: > 100 µM (inactive)
[44]
  GI50: > 100 µM (inactive)
[45]
  GI50: > 100 µM (inactive)
[46]
  GI50: > 100 µM (inactive)
[47]
  GI50: > 100 µM (inactive)
[48]
  GI50: > 100 µM (inactive)
[49]
  GI50: > 100 µM (inactive)
[50]
  GI50: > 100 µM (inactive)
[51]
  GI50: > 100 µM (inactive)
[52]
  GI50: 96.8 µM (inactive)

## O=C1OC(c2ccccc2)(c2ccccc2)CC1CN1CCOCC1 (stereo not drawn)
[1]
  GI50: 29.3 µM (inactive)
[2]
  GI50: 13.5 µM (inactive)
[3]
  GI50: 5.07 µM (inactive)
[4]
  GI50: 25.4 µM (inactive)
[5]
  GI50: > 100 µM (inactive)
[6]
  GI50: 29.2 µM (inactive)
[7]
  GI50: 57.8 µM (inactive)
[8]
  GI50: 12.8 µM (inactive)
[9]
  GI50: 17.5 µM (inactive)
[10]
  GI50: 13.9 µM (inactive)
[11]
  GI50: 16.7 µM (inactive)
[53]
  GI50: 6.61 µM (inactive)
[12]
  GI50: 20.6 µM (inactive)
[14]
  GI50: 15.6 µM (inactive)
[15]
  GI50: 2.77 µM (inactive)
[16]
  GI50: 17.7 µM (inactive)
[17]
  GI50: 14.2 µM (inactive)
[54]
  GI50: 38.2 µM (inactive)
[18]
  GI50: 24.5 µM (inactive)
[19]
  GI50: 15.9 µM (inactive)
[20]
  GI50: 18 µM (inactive)
[21]
  GI50: 18.1 µM (inactive)
[22]
  GI50: 10.7 µM (inactive)
[55]
  GI50: 33.7 µM (inactive)
[23]
  GI50: 12.5 µM (inactive)
[24]
  GI50: 16.1 µM
[25]
  GI50: 6.18 µM (inactive)
[26]
  GI50: 3.08 µM (inactive)
[28]
  GI50: 18.2 µM (inactive)
[29]
  GI50: 14.6 µM (inactive)
[30]
  GI50: > 100 µM (inactive)
[31]
  GI50: 5.98 µM (inactive)
[32]
  GI50: 60.7 µM (inactive)
[33]
  GI50: 29 µM (inactive)
[34]
  GI50: 11.4 µM (inactive)
[36]
  GI50: 26.5 µM (inactive)
[56]
  GI50: 24.2 µM (inactive)
[37]
  GI50: 17.1 µM (inactive)
[38]
  GI50: 17.1 µM (inactive)
[39]
  GI50: 44.7 µM (inactive)
[40]
  GI50: > 100 µM (inactive)
[41]
  GI50: 27.5 µM (inactive)
[42]
  GI50: 16.7 µM (inactive)
[43]
  GI50: 23.1 µM (inactive)
[57]
  GI50: 16.5 µM (inactive)
[45]
  GI50: 17.9 µM (inactive)
[46]
  GI50: 13.9 µM (inactive)
[47]
  GI50: 18.5 µM (inactive)
[48]
  GI50: 1.95 µM (inactive)
[49]
  GI50: 25.6 µM (inactive)
[51]
  GI50: 10.2 µM (inactive)
